Experiment: xn = mol fraction of the nth substance listed
Settings: 298.15 K, 100 kPa

Question: With CC(=O)[O-].Cn1cc[nH+]c1 + CC(=O)[O-].C[NH+]1CCOCC1 as the molecule, how does the electrical conductivity (x1 = 1) read?
Answer: 0.448 S/m

Question: Which electrical conductivity (x2 = 0) does the source give for CC(=O)[O-].C[NH+]1CCOCC1 + CC(=O)[O-].Cn1cc[nH+]c1 here?
Answer: 0.0229 S/m

Question: And the electrical conductivity (x2 = 0.1)?
Answer: 0.0447 S/m

Question: And the electrical conductivity (x2 = 0.19)?
Answer: 0.0662 S/m

Question: And the electrical conductivity (x2 = 0.31)?
Answer: 0.0959 S/m

Question: And the electrical conductivity (x2 = 0.4)?
Answer: 0.158 S/m

Question: And the electrical conductivity (x2 = 0.5)?
Answer: 0.202 S/m

Question: What about the electrical conductivity (x2 = 0.59) of the same molecule?
Answer: 0.242 S/m

Question: What about the electrical conductivity (x2 = 0.8) of the same molecule?
Answer: 0.331 S/m

Question: For CCCC[N+]1(C)CCCC1.O=S(=O)([N-]S(=O)(=O)C(F)(F)F)C(F)(F)F + CC(=O)[O-].Cn1cc[nH+]c1, which viscosity (x2 = 0) is on record?
Answer: 74.9 mPa·s

Question: Which viscosity (x2 = 0) does the source give for CCCC[n+]1ccn(C)c1.O=S(=O)([N-]S(=O)(=O)C(F)(F)F)C(F)(F)F + CC(=O)[O-].Cn1cc[nH+]c1 here?
Answer: 49.3 mPa·s

Question: Which viscosity (x2 = 0) does the source give for COS(=O)(=O)[O-].Cn1cc[n+](C)c1 + CC(=O)[O-].Cn1cc[nH+]c1 here?
Answer: 93.4 mPa·s

Question: With CC(=O)[O-].Cn1cc[nH+]c1 + CCCC[N+]1(C)CCCC1.O=S(=O)([N-]S(=O)(=O)C(F)(F)F)C(F)(F)F as the molecule, how does the viscosity (x1 = 0.1) read?
Answer: 59.5 mPa·s

Question: And the viscosity (x1 = 0.31)?
Answer: 38.8 mPa·s

Question: What about the viscosity (x1 = 0.4) of the same molecule?
Answer: 33.3 mPa·s

Question: What about the viscosity (x1 = 0.59) of the same molecule?
Answer: 21.1 mPa·s

Question: And the viscosity (x1 = 0.71)?
Answer: 15.9 mPa·s

Question: What about the viscosity (x1 = 0.8) of the same molecule?
Answer: 12.1 mPa·s

Question: Which viscosity (x1 = 0.1) does the source give for CC(=O)[O-].Cn1cc[nH+]c1 + CCCC[n+]1ccn(C)c1.O=S(=O)([N-]S(=O)(=O)C(F)(F)F)C(F)(F)F here?
Answer: 42.8 mPa·s

Question: And the viscosity (x1 = 0.19)?
Answer: 38.4 mPa·s

Question: And the viscosity (x1 = 0.31)?
Answer: 33.5 mPa·s

Question: What about the viscosity (x1 = 0.4) of the same molecule?
Answer: 28.8 mPa·s

Question: What about the viscosity (x1 = 0.5) of the same molecule?
Answer: 24.5 mPa·s

Question: What about the viscosity (x1 = 0.59) of the same molecule?
Answer: 20.2 mPa·s

Question: What about the viscosity (x1 = 0.71) of the same molecule?
Answer: 15.5 mPa·s

Question: And the viscosity (x1 = 0.8)?
Answer: 12.2 mPa·s

Question: What about the viscosity (x1 = 1) of the same molecule?
Answer: 6.22 mPa·s

Question: For CC(=O)[O-].Cn1cc[nH+]c1 + COS(=O)(=O)[O-].Cn1cc[n+](C)c1, which viscosity (x1 = 0.71) is on record?
Answer: 19.9 mPa·s

Question: And the viscosity (x1 = 0.8)?
Answer: 13.6 mPa·s

Question: And the viscosity (x1 = 1)?
Answer: 6.22 mPa·s

Reference: a compilation of properties of binary mixtures (doi:10.1016/j.molliq.2018.12.024)
